# Results published in patent EP0104857A1, “Deoxyuridine compounds, methods for preparing them and their use in medicine” (BEECHAM GROUP PLC, priority 1982, dated 1984).
# Read-outs that look alike come from different tables or passages of the source.
# Legend:
# [1] = tested on: Herpes simplex type 1 virus (HFEM strain); test: Plaque reduction assay in virus-infected Vero cells; type: cell-based; details: Human alphaherpesvirus 1, 96 h, concentration causing 50% reduction in number of virus plaques, HSV-1 HFEM strain, 4 days incubation at 37 C, read-out: PDD50 (the source's name)
# Experimental: (§1) Vero (African Green Monkey Kidney) cells were grown to confluence in 24 well multidishes, each well being 1.6 cm in diameter. The cells were infected with Herpes simplex type 1 virus (HFEM strain) and overlaid with 0.5ml of 0.9% agarose (w/v) in maintenance medium. Test compounds prepared in maintenance medium in concentrations ranging from 100 to 0.03 pg/ml in half-log dilution steps, were added in 0.5ml volume. The virus infected cultures were then incubated at 37 °C for 4 days before fixing in 4% formaldehyde solution and staining with carbolfuchsin.
# [2] = Cytotoxicity in the plaque reduction assay cultures; type: cell-based, African Green Monkey; details: monkey; minimum concentration of test compound which caused cytotoxicity; Vero cells, 4 days; highest concentration tested 100; read-out: MTD
# Experimental: as §1
IC50 ([1]; molar units) [µM],IC50 [1] [µg/mL],Compound,MCC at 96 h [2] [µg/mL]
43,19,"CCOC(CCl)OC[C@H]1O[C@@H](n2cc(/C=C/Br)c(=O)[nH]c2=O)C[C@@H]1O (stereo partly drawn) [Example 21, 5-(E-2-bromovinyl)-5'-0-(2-chloro-1-ethoxyethyl)-2'-deoxyuridine]",> 100
2.8,1.1,"O=c1[nH]c(=O)n([C@H]2C[C@H](OC3CCCO3)[C@@H](CO)O2)cc1/C=C/Br (stereo partly drawn) [Example 2, 5-(E-2-bromovinyl)-2'-deoxy-3'-O-(tetrahydrofuran-2-yl)uridine]",> 100
17,9.1,"CCOC(CCl)OC[C@H]1O[C@@H](n2cc(/C=C/Br)c(=O)[nH]c2=O)C[C@@H]1OC(CCl)OCC (stereo partly drawn) [Example 19, 5-(E-2-Bromovinyl)-3',5'-bis-0-(2-chloro-1-ethoxyethyl)-2'-deoxyuridine]",> 100
126,72,"O=c1[nH]c(=O)n([C@H]2C[C@H](OCOCc3ccccc3)[C@@H](COCOCc3ccccc3)O2)cc1/C=C/Br [Example 10, 3',5'-Bis-O-benzoxmethl-5-(E-2-bromovinyl)-2'-deoxuridine]",> 100
15,6.4,"CCOC(CC)OC[C@H]1O[C@@H](n2cc(/C=C/Br)c(=O)[nH]c2=O)C[C@@H]1O (stereo partly drawn) [Example 8, 5-(E-2-bromovinyl)-2'-deoxy-5'-O-(1-ethoxypropyl)uridine]",> 100
7.5,3.3,"CCOC(CCl)O[C@H]1C[C@H](n2cc(/C=C/Br)c(=O)[nH]c2=O)O[C@@H]1CO (stereo partly drawn) [Example 20, 5-(E-2-bromovinyl)-3'-O-(2-chloro-1-ethoxyethyl)-2^1-deoxyuridine]",> 100
34,17,"O=c1[nH]c(=O)n([C@H]2C[C@H](OC3CCCCO3)[C@@H](COC3CCCCO3)O2)cc1/C=C/Br (stereo partly drawn) [Example 4, 5-(E-2-Bromovinyl)-2'-deoxy-3',5'-bis-O-(tetrahdropyropyran-2-yl)uridine]",100
15,6.6,"O=c1[nH]c(=O)n([C@H]2C[C@H](O)[C@@H](COCOCc3ccccc3)O2)cc1/C=C/Br [Example 12, 5'-O-benzoxymethyl-5-(E-2-bromovinyl)-2'-deoxyuridine]",> 100
4.3,1.8,"O=c1[nH]c(=O)n([C@H]2C[C@H](OC3CCCCO3)[C@@H](CO)O2)cc1/C=C/Br (stereo partly drawn) [Example 5, 5-(E-2-bromovinyl)-2'-deoxy-3'-O-(tetrahydropyran-2-yl)uridine]",> 100
9,4.3,"O=c1[nH]c(=O)n([C@H]2C[C@H](OC3CCCO3)[C@@H](COC3CCCO3)O2)cc1/C=C/Br (stereo partly drawn) [Example 1, 5-(E-2-Bromovinyl)-2'-deoxy-3',5'-bis-O-(tetrahydrofuran-2-yl)uridine]",> 100
170,69,"O=c1[nH]c(=O)n([C@H]2C[C@H](O)[C@@H](COC3CCCCO3)O2)cc1/C=C/Br (stereo partly drawn) [Example 6, 5-(E-2-bromo-vinyl) -2'-deoxy-5'-O-(tetrahydropyran-2-yl) uridine]",> 100
